Test results published in ChEMBL document CHEMBL5325396, “Discovery of Novel Acridane-Based Tubulin Polymerization Inhibitors with Anticancer and Potential Immunomodulatory Effects” (J Med Chem, 2023).

Tests used:
B16-F10 [1] = test: Immunomodulatory activity in mouse B16-F10 cells allografted in C57 mouse assessed as increase in CD3-positive CD4-positive cells at 10 mg/kg, ip administered consecutively for 14 days (reference value: 8.35 %); type: functional; conditions: time 14 day
B16-F10 [2] = test: Immunomodulatory activity in mouse B16-F10 cells allografted in C57 mouse assessed as increase in CD3-positive CD8-positive cells at 10 mg/kg, ip administered consecutively for 14 days (reference value: 6.66 %); type: functional; conditions: time 14 day
B16-F10 [3] = test: Antitumor activity against mouse B16-F10 cells allografted in C57 mouse assessed as tumor growth inhibition at 10 mg/kg, ip administered consecutively for 14 days in presence of NP-19; type: functional; conditions: B16-F10, 336 h, time 14 day, read-out: TGI
B16-F10 [4] = test: Induction of cell cycle arrest in mouse B16-F10 cells assessed as accumulation at G1 phase at 10 nM incubated for 24 hrs by PI staining based flow cytometry (reference value: 52.77 %); type: functional
B16-F10 [5] = test: Induction of apoptosis in mouse B16-F10 cells assessed as late apoptotic cells at 10 nM incubated for 48 hrs by annexinV-FITC/PI staining based flow cytometry (reference value: 2.06 %); type: functional
B16-F10 [6] = test: Induction of apoptosis in mouse B16-F10 cells assessed as late apoptotic cells at 25 nM incubated for 48 hrs by annexinV-FITC/PI staining based flow cytometry (reference value: 2.06 %); type: functional
[7] = Toxicity in C57 mouse allografted with mouse B16-F10 cells assessed as pathological damage in heart at 10 mg/kg, ip administered consecutively for 14 days by H and E staining based analysis; type: organism-based; conditions: in vivo, 336 h, time 14 day
B16-F10 [8] = test: Induction of cell cycle arrest in mouse B16-F10 cells assessed as accumulation at G2 phase at 50 nM incubated for 24 hrs by PI staining based flow cytometry (reference value: 23.04 %); type: functional
HCT-116 = test: Antiproliferative activity against human HCT-116 cells incubated for 48 hrs by MTT assay; type: functional, cell-based; conditions: HCT-116, 48 h
HeLa = test: cells; conditions: Homo sapiens, 48 h
Description: Antiproliferative activity against human HeLa cells incubated for 48 hrs by MTT assay

Tubulin = Tubulin (Sus scrofa, UniProt P02554+P02550); test: Inhibition of tubulin polymerization of pig brain microtubules by spectroscopic analysis; type: tissue-based
B16-F10 [9] = test: Inhibition of colony formation in mouse B16-F10 cells at 50 uM incubated for 24 hrs and subsequent replacement of medium without compound measured after 10 to 14 days by crystal violet staining based assay relative to control; type: functional
[10] = Toxicity in C57 mouse allografted with mouse B16-F10 cells assessed as body weight loss at 10 mg/kg, ip administered consecutively for 14 days in presence of NP-19; type: organism-based; conditions: in vivo, 336 h, time 14 day
[11] = Toxicity in C57 mouse allografted with mouse B16-F10 cells assessed as pathological damage in kidney at 10 mg/kg, ip administered consecutively for 14 days by H and E staining based analysis; type: organism-based; conditions: in vivo, 336 h, time 14 day
[12] = Toxicity in C57 mouse allografted with mouse B16-F10 cells assessed as body weight loss at 10 mg/kg, ip administered consecutively for 14 days; type: organism-based; conditions: in vivo, 336 h, time 14 day
[13] = Toxicity in C57 mouse allografted with mouse B16-F10 cells assessed as pathological damage in liver at 10 mg/kg, ip administered consecutively for 14 days by H and E staining based analysis; type: organism-based; conditions: in vivo, 336 h, time 14 day
B16-F10 [14] = test: Induction of apoptosis in mouse B16-F10 cells assessed as early apoptotic cells at 10 nM incubated for 48 hrs by annexinV-FITC/PI staining based flow cytometry (reference value: 4.25 %); type: functional
B16-F10 [15] = test: Induction of cell cycle arrest in mouse B16-F10 cells assessed as accumulation at G1 phase at 25 nM incubated for 24 hrs by PI staining based flow cytometry (reference value: 52.77 %); type: functional
B16-F10 [16] = test: Induction of cell cycle arrest in mouse B16-F10 cells assessed as accumulation at G1 phase at 50 nM incubated for 24 hrs by PI staining based flow cytometry (reference value: 52.77 %); type: functional
B16-F10 [17] = test: Induction of apoptosis in mouse B16-F10 cells assessed as late apoptotic cells at 50 nM incubated for 48 hrs by annexinV-FITC/PI staining based flow cytometry (reference value: 2.06 %); type: functional
B16-F10 [18] = test: Induction of apoptosis in mouse B16-F10 cells assessed as viable cells at 10 nM incubated for 48 hrs by annexinV-FITC/PI staining based flow cytometry (reference value: 93.6 %); type: functional; conditions: read-out: Activity
B16-F10 [19] = test: Induction of cell cycle arrest in mouse B16-F10 cells assessed as accumulation at S phase at 25 nM incubated for 24 hrs by PI staining based flow cytometry (reference value: 21.79 %); type: functional
B16-F10 [20] = test: Immunomodulatory activity in mouse B16-F10 cells allografted in C57 mouse assessed as decrease in PD-L1 level at 10 mg/kg, ip administered consecutively for 14 days in presence of NP-19 relative to control; type: functional; parameters: scale not given: the % may be the effect or the level left; conditions: time 14 day
B16-F10 [21] = test: Inhibition of tubulin polymerization in mouse B16-F10 cells assessed as loss of cellular structure incubated for 6 hrs by fluorescence microscopy; type: cell-based; conditions: dose 10-50 nM
B16-F10 [22] = test: Inhibition of tubulin polymerization in mouse B16-F10 cells assessed as disruption of microtubule network incubated for 6 hrs by fluorescence microscopy; type: cell-based; conditions: dose 10-50 nM
B16-F10 [23] = test: Inhibition of cell migration in mouse B16-F10 cells assessed as wound area ratio at 10 nM incubated for 24 hrs by wound healing assay relative to control; type: functional
B16-F10 [24] = test: Induction of cell cycle arrest in mouse B16-F10 cells assessed as accumulation at S phase at 10 nM incubated for 24 hrs by PI staining based flow cytometry (reference value: 21.79 %); type: functional
B16-F10 [25] = test: Induction of apoptosis in mouse B16-F10 cells assessed as early apoptotic cells at 50 nM incubated for 48 hrs by annexinV-FITC/PI staining based flow cytometry (reference value: 4.25 %); type: functional
B16-F10 [26] = test: Induction of apoptosis in mouse B16-F10 cells assessed as necrotic cells at 10 nM incubated for 48 hrs by annexinV-FITC/PI staining based flow cytometry (reference value: 0.064 %); type: functional
B16-F10 [27] = test: Induction of apoptosis in mouse B16-F10 cells assessed as viable cells at 50 nM incubated for 48 hrs by annexinV-FITC/PI staining based flow cytometry (reference value: 93.6 %); type: functional; conditions: read-out: Activity
HepG2 = test: Antiproliferative activity against human HepG2 cells incubated for 48 hrs by MTT assay; type: functional, cell-based; conditions: HepG2, 48 h
B16-F10 [28] = test: Immunomodulatory activity in mouse B16-F10 cells allografted in C57 mouse assessed as increase in CD3-positive CD8-positive cells at 10 mg/kg, ip administered consecutively for 14 days in presence of NP-19 (reference value: 6.66 %); type: functional; conditions: time 14 day
B16-F10 [29] = test: Induction of cell cycle arrest in mouse B16-F10 cells assessed as accumulation at G2 phase at 10 nM incubated for 24 hrs by PI staining based flow cytometry (reference value: 23.04 %); type: functional
B16-F10 [30] = test: Inhibition of cell migration in mouse B16-F10 cells assessed as wound area recovery upto 50 nM incubated for 24 hrs by wound healing assay relative to control; type: functional; parameters: scale not given: the % may be the effect or the level left; conditions: up to 50 nM

Compound `COc1ccc2c(c1F)Cc1ccccc1N2C(=O)c1cc(OC)c(OC)c(OC)c1` has an Activity (B16-F10 [1]) of 10.1%, an Activity (B16-F10 [2]) of 8.17% and an inhibition in vivo at 10 mg/kg (B16-F10 [3]) of 77.6%. The Activity (B16-F10 [4]) was 50.88%, the Activity (B16-F10 [5]) was 3.17% and the Activity (B16-F10 [6]) was 6.63%. The Activity [7] was “Non-Toxic”, the Activity (B16-F10 [8]) was 71.11% and the IC50 (HCT-116) was 23 nM. The IC50 (HeLa) was 37 nM, the IC50 (Tubulin) was 1500 nM and the inhibition at 50 µM (B16-F10 [9]) was ~100%. For the same compound, the Activity [10] was “Non-Toxic”, the Activity [11] was “Non-Toxic” and the Activity [12] was “Non-Toxic”. For the same compound, the Activity [13] was “Non-Toxic”, the Activity (B16-F10 [14]) was 5.7% and the Activity (B16-F10 [15]) was 16.55%. It also gave an Activity (B16-F10 [16]) of 3.24%, an Activity (B16-F10 [17]) of 13.4% and a viability at 0.01 µM (B16-F10 [18]) of 91%. The Activity (B16-F10 [19]) was 38.12%, the Activity (B16-F10 [20]) was ~60% and the inhibition (B16-F10 [21]) was “Dose-Dependent Effect”. For the same compound, the inhibition (B16-F10 [22]) was “Dose-Dependent Effect”, the Ratio (B16-F10 [23]) was 31.52% and the Activity (B16-F10 [24]) was 22.85%. It also gave an Activity (B16-F10 [25]) of 36.8%, an Activity (B16-F10 [26]) of 0.133% and a viability at 0.05 µM (B16-F10 [27]) of 49.3%. It also gave an IC50 (HepG2) of 41 nM, an Activity (B16-F10 [28]) of 19.5% and an Activity (B16-F10 [29]) of 24.07%. The Activity (B16-F10 [30]) was 59.63%.
